The numbers were not newly measured in US20200352795A1, “WETNESS INDICATOR WITH HARDENERS” (SAVARE' I.C. S.r.l., priority 2018, published 2020), which cites them from elsewhere.

In general, pKa refers to the negative logarithm of the acid dissociation constant.

Conditions in the first data set: not given
As for `Cc1cc(C2(c3cc(C)c(O)c(Br)c3)OS(=O)(=O)c3ccccc32)cc(Br)c1O` [Bromocresol Purple Free Acid], the “pKa of pH-indicator colorant” value is given as 6.3.
Take `O=C1OC2(c3cc(Br)c(O)c(Br)c3Oc3c2cc(Br)c(O)c3Br)c2c(Cl)c(Cl)c(Cl)c(Cl)c21` [Acid Phloxine B]: the “pKa of pH-indicator colorant” value was about 2.9.
Regarding `O=S1(=O)OC(c2cc(Br)c(O)c(Br)c2)(c2cc(Br)c(O)c(Br)c2)c2ccccc21` [Bromophenol Blue Free Acid], the “pKa of pH-indicator colorant” value is on record as about 4.0.

The same data set, now with this note: Table 1.
For the compound `O=C1OC2(c3cc(Br)c(O)c(Br)c3Oc3c2cc(Br)c(O)c3Br)c2c(Cl)c(Cl)c(Cl)c(Cl)c21` [Acid Phloxine B], the pKa was 2.9.
Regarding `O=S(=O)(O)c1ccc(N=C2C=CC(=C(c3ccc(Nc4ccc(S(=O)(=O)O)cc4)cc3)c3ccc(Nc4ccc(S(=O)(=O)O)cc4)cc3)C=C2)cc1` [Aniline Blue (also known as Methyl Blue), Aniline Blue], the pKa is on record as 11.7.
As to `Cc1c(C2(c3cc(Br)c(O)c(Br)c3C)OS(=O)(=O)c3ccccc32)cc(Br)c(O)c1Br` [Bromocresol Green Free Acid], the pKa is given as 4.8.
